Test results as given in patent publication US6500610B1, “Methods for identifying compounds for inhibiting of neoplastic lesions, and pharmaceutical compositions containing such compounds” (Cell Pathways, INC, priority 1997, dated 2002).
Where two headings read alike, the source gives them in different places.

Tests used:
[1] = tested on: cGMP PDE from human colon HT-29 cultured tumor cells; test: cGMP PDE inhibition assay; assay type: biochemical
[2] = molecular target: T1, cyclooxygenase (Type 1), COX-I (Ovis aries, UniProt P05979); test: COX inhibition assay, purified cyclooxygenase
T1 sequence (P05979 25-600): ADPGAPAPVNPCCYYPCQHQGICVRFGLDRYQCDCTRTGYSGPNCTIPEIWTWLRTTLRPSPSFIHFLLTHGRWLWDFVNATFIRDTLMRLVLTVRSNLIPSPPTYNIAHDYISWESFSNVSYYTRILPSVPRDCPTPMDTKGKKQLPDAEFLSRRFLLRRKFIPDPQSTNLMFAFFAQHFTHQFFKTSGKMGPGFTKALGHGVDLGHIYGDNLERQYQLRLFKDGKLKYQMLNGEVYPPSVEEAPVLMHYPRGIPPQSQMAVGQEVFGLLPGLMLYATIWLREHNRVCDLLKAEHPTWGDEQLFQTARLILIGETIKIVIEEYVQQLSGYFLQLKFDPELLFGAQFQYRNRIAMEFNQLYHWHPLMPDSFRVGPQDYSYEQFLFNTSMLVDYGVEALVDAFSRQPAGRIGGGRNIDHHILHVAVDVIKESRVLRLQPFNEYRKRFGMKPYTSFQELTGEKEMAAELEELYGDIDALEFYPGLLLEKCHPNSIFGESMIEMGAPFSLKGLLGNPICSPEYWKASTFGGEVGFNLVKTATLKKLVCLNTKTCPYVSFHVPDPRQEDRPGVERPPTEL

[3] = tested on: SW-480 colon adenocarcinoma cells
[4] = tested on: HT-29 cells; test: Growth inhibition, SRB assay, HT-29; assay type: cell-based, human
[5] = molecular target: T2, cGMP binding sites of the GST-cGB-PDE5 Protein (Homo sapiens, UniProt O76074); test: cGMP binding assay with GST-cGB-PDE5 fusion protein; settings: 3H-cGMP 2 μM
T2 construct: made in house; host or cells: E. coli BL21 (DE3)

[6] = tested on: protein kinase G (PKG) activity in HCT116 colon cancer cells; test: PKG activity assay of lysates of drug-treated HCT116 cells; assay type: cell-based
Text: To test the effect of cGMP-specific PDE inhibition on neoplasia containing the β-catenin mutation, HCT116 colon cancer cells were employed. HCT116 is known to contain the β-catenin mutation, but is known not to contain the APC mutation.
The same procedure is used to grow the HCT116 cells as is used in the SW480 procedure described above. In this experiment, only exisulind and controls were used.

[7] = tested on: premalignant lesions in mouse mammary gland organ culture; test: Mammary gland organ culture model; assay type: cell-based
Text: Test compounds identified by the above methods can be tested for antineoplastic activity by their ability to inhibit the incidence of pre-neoplastic lesions in a mammary gland organ culture system. This mouse mammary gland organ culture technique has been successfully used by other investigators to study the effects of known antineoplastic agents such as certain NSAIDs, retinoids, tamoxifen, selenium, and certain natural products, and is useful for validation of the screening method of the present invention.
For example, female BALB/c mice can be treated with a combination of estradiol and progesterone daily, in order to prime the glands to be responsive to hormones in vitro. The animals are sacrificed, and thoracic mammary glands are excised aseptically and incubated for ten days in growth media supplemented with insulin, prolactin, hydrocortisone, and aldosterone. DMBA (7,12 dimethylbenz(a)anthracene) is added to medium to induce the formation of premalignant lesions. Fully developed glands are then deprived of prolactin, hydrocortisone, and aldosterone, resulting in the regression of the glands but not the pre-malignant lesions.
The test compound is dissolved in DMSO and added to the culture media for the duration of the culture period. At the end of the culture period, the glands are fixed in 10% formalin, stained with alum carmine, and mounted on glass slides. The incidence of forming mammary lesions is the ratio of the glands with mammary lesions to […]. The incidence of mammary lesions in test compound treated glands is compared with that of the untreated glands.
The extent of the area occupied by the mammary lesions can be quantitated by projecting an image of the gland onto a digitation pad. The area covered by the gland is traced on the pad and considered as 100% of the area. The space covered by each of the non-regressed structures is also outlined on the digitization pad and quantitated by the computer.
Mammary gland organ culture experiment were performed as previously described (Mehta and Moon, Cancer Research, 46:5832-5835, 1986). […]

[8] = tested on: β-catenin in SW480 cells; test: Western blot of β-catenin in SW480 cells; assay type: cell-based, human; settings: SW480, 200, 400 or 600 μM, 48 hours
Procedure: SW480 cells treated with exisulind as described previously are harvested from the microfuge tubes by rinsing once with ice-cold PBS. The cells are lysed by modified RIPA buffer for 15 minutes with agitation. The cell lysate is spun down in a cold room. The supernatants are transferred to fresh microcentrifuge tubes immediately after spinning. BioRad DC Protein Assay (Temecula, Calif.) is performed to determine the protein concentrations in samples. The samples are normalized for protein concentration, as described above.
50 μg of each sample is loaded to 10% SDS gel. SDS-PAGE is performed, and the proteins then are transferred to a nitrocellulose membrane. The blotted nitrocellulose membrane are blocked in freshly prepared TBST containing 5% nonfat dry milk for one hour at room temperature with constant agitation.
SW480 cells were treated with exisulind or vehicle (0.1% DMSO) for 48 hours. 50 μg supernatant of each cell lysates were loaded to 10% SDS-gel and blotted to nitrocellulose membrane, and the membrane was probed with rabbit-anti-β-catenin and rabbit anti-PKG antibodies.
This observation was made by culturing SW480 cells with either 200, 400 or 600 μM exisulind or vehicle (0.1% DMSO). The cells are harvested 48 hours post treatment and processed for immunoblotting. Immuno-reactive protein can be detected by Western blot. […]

[9] = tested on: patients; test: Safety evaluation in exisulind clinical trials; assay type: in vivo
Procedure: In these exisulind trials and several others involving the drug in other indications, safety was evaluated by monitoring adverse events (AEs), clinical laboratory tests (hematology, serum chemistry, and urinalysis), vital signs (blood pressure, pulse rate, respiratory rate, temperature, and weight), physical examination, and upper endoscopy.

[10] = tested on: novel Peak B from LnCAP prostate cancer cell line; test: cGMP PDE activity of peak B from LnCAP; assay type: biochemical; settings: 0.25 μM cGMP
Procedure: (§1) The novel Peak B was also isolated from two other neoplastic cell lines, a breast cancer cell line, HTB-26 and a prostate cancer cell line, LnCAP by a procedure similar to the one above used to isolate it from SW480. The protocol was modified in several respects. To provide even greater reproducibility to allow comparison of different cell lines, a Pharmacia AKTA FPLC was used to control sample loading and elution on an 18 mL DEAE TrisAcryl M column. SW840 was run by this same procedure multiple times to provide a reference of peak B. 200-400 million cells of SW480 were used for the profiles. 70 million cells of LnCAP were used for a profile (see FIGS. 22 and 23), and in a separate experiment 32 million cells of HTB-26 were used for a profile (see FIGS. 20 and 21). After re-suspending cells in homogenization buffer, samples were manually homogenized. FPLC buffer A was 8 mM TRIS-acetate, 5 mM Mg acetate, 0.1 mM EDTA, pH 7.5 and buffer B was 8 mM TRIS-acetate, 5 mM Mg acetate, 0.1 mM EDTA, 1 M Na acetate, pH 7.5. Supernatants were loaded onto the column at 1 mL per minute, followed by a wash with 60 mL buffer A at 1 mL per minute. A gradient was run from 0-15% buffer B in 60 mL, 15-50% buffer B in 60 mL, and 50-100% buffer B in 16 mL. During the gradient 1.5 mL fractions were collected.

[11] = tested on: novel Peak B from HTB-26 breast cancer cell line; test: cGMP PDE activity of peak B from HTB-26; assay type: biochemical; settings: peak B from HTB-26, 0.25 μM cGMP
Procedure: as §1

[12] = molecular target: T3, novel cGMP-specific PDE (Peak B) from SW480 cells (Homo sapiens, UniProt O00408); test: cGMP hydrolysis inhibition, novel PDE peak B (Section IA) from SW480; assay type: biochemical; settings: peak B from SW480, FPLC, 0.25 μM cGMP
T3 construct: IC50 Peak B (μM)

[13] = tested on: SW-480 colon adenocarcinoma cells; test: Apoptosis fold induction / DNA fragmentation protocol

## CCN(CC)CCSC12CC(=O)OC1(C)/C(=C/c1ccc(S(C)(=O)=O)cc1)c1ccc(F)cc12 (racemic) [A, rac-threo-(E)-1-(N,N′-diethylaminoethanethio)-1-(butan-1′,4′-olido)-[3′,4′:1,2]-6-fluoro-2-methyl-3-(p-methylsulfonylbenzylidene)-indan]
[1]
  cGMP PDE % Inhibition at 10 μM: <25%
[2]; 100 μM
  COX % Inhibition at 100 μM: <25%
[3]
  Fold induction at 100 μM (apoptosis): <2.0 fold
[4]
  Growth % Inhibition at 100 μM: 68%

## CC1=C(CC(=O)O)c2cc(F)ccc2/C1=C\c1ccc(S(C)(=O)=O)cc1 [Exisulind, 5-fluoro-2-methyl-1-(p-methylsulfonylbenzylidene)-3-indenylacetic acid]
[5]
  competition with cGMP in binding of GST-cGB-PDE5: None of the PDE5 inhibitors showed any competition with cGMP
[1]
  cGMP PDE % Inhibition at 10 μM: 39%
[6]
  PKG activity relative to control: PKG activation occurred
[7]
  inhibition of formation of premalignant lesions: effectively inhibit the formation of premalignant lesions
[2]
  IC50: > 10 mM
[8]
  reduction of expression of β-catenin: 50%
[9]; human, in vivo
  dose-limiting adverse events: elevations in liver function tests (LFTs)
  safety issues in clinical trials: No outstanding safety issues have been demonstrated
[9]; polyp and normal colonic tissues in APC patients
  apoptosis rates in paired biopsies: increased apoptosis rates in polyp, but not normal colonic tissues

## O=C([O-])C1CCN(c2nc(NCc3ccc4c(c3)OCO4)c3cc(Cl)ccc3n2)CC1.[Na+] [Compound E4021]
[5]
  competition with cGMP in binding of GST-cGB-PDE5: None of the PDE5 inhibitors showed any competition with cGMP
[10]
  sensitivity of peak B cGMP PDE activity: resistant to 100 nM E4021
[4]
  Growth % Inhibition at 100 μM: <50%
[11]
  sensitivity of peak B cGMP PDE activity: resistant to 100 nM E4021
[12]
  sensitivity of peak B cGMP PDE activity: resistant to 100 nM E4021

## CCCCCC[C@@H]([C@@H](C)O)n1cnc2c(N)ncnc21 (racemic) [EHNA]
[13]
  Fold induction at 100 μM (apoptosis): <2.0 fold
